Assay results from paper PMC5145767 (Neuron, 2016).
Where two headings read alike, the source gives them in different places.

Tests used:
DGluR1A [1] = biological target: T1, DGluR1A (Drosophila melanogaster, UniProt Q03445); assay: DGluR1A coexpressed with Apis Stg1 in Xenopus oocytes; assay type: cell-based; conditions: for activation, % of the response to glutamate recorded in the same cell: agonists 3 mM
DKaiR1D [2] = biological target: T2, DKaiR1D (Drosophila melanogaster, UniProt Q9VDH5); assay type: cell-based; conditions: for activation of DKaiR1D: Xenopus oocytes, ligands of b17 all applied at 10 mM
DGluR1A Y792T [3] = assay: Proteolysis protection assay of DGluR1A Y792T mutant; assay type: binding, Drosophila melanogaster; conditions: Figure S8B
[4] = test system: DGluR1A ligand-binding domain; set-up: species or system Drosophila melanogaster; conditions: ligand 1 mM, trypsin 1:20
[5] = test system: DKaiR1D ligand-binding domain; set-up: species or system Drosophila melanogaster; conditions: ligand 1 mM, trypsin 1:20, 60 min
DGluR1A Y792T [6] = biological target: DGluR1A Y792T (Drosophila melanogaster, UniProt Q03445, Y792T); assay: Receptor activity of DGluR1A Y792T mutant; assay type: cell-based; conditions: Figure S8C
DGluR1A Y792T (Drosophila melanogaster, UniProt Q03445, Y792T), sequence (Q03445 28-991 Y792T): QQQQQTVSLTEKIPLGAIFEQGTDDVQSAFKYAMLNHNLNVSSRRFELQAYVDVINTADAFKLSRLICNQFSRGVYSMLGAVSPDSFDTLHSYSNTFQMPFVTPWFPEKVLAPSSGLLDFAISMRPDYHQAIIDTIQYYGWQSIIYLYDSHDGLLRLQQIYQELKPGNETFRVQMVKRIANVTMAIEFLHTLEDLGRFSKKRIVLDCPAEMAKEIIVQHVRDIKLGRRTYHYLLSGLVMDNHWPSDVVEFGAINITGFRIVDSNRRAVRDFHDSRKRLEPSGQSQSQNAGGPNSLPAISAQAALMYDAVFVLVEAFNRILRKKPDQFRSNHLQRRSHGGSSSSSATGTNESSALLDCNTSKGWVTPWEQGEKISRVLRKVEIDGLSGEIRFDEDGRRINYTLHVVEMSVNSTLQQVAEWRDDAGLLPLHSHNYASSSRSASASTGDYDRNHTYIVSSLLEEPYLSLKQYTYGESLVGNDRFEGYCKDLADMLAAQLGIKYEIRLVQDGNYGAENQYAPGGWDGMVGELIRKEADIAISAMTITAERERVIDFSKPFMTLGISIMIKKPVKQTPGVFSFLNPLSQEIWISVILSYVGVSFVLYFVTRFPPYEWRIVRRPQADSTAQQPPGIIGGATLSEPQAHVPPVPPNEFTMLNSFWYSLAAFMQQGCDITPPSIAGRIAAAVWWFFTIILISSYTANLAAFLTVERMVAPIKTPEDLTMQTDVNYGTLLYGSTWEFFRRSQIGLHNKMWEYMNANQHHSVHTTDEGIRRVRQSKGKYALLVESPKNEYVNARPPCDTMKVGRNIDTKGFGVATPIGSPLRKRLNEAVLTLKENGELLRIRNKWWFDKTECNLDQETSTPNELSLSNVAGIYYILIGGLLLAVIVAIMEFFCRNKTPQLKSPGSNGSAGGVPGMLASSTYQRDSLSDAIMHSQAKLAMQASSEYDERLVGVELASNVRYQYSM

DKaiR1D Q604R = DKaiR1D Q604R mutant responses in Xenopus oocytes; assay type: cell-based, Drosophila melanogaster; conditions: 3 μM toxin, 3 mM glutamate, -60 mV
DGluR1A [7] = biological target: T1, DGluR1A; conditions: 1992, cited from earlier work
GluK2 = conditions: ref Plested and Mayer, 2007; cited from earlier work
DKaiR1D [8] = biological target: T2, DKaiR1D; assay type: cell-based
[9] = 10 mM glutamate, decay fit by sum of two exponentials
[10] = NaCl, NaMeSO3 exchange experiment

T1 sequence (Q03445 28-991): as the sequence (Q03445 28-991 Y792T) above, with T765Y counted along it

Molecule: Cc1o[nH]c(=O)c1CC(N)C(=O)O (centres unmarked) [AMPA]
- activation, % of the response to glutamate recorded in the same cell (DGluR1A [1]; -60 mV, Apis Stg1): 40 ± 4%
- activation of DKaiR1D (DKaiR1D [2]; -60 mV): but not AMPA, aspartate or NMDA produced activation
- binding in proteolysis protection assay (DGluR1A Y792T [3]): but not AMPA, binds strongly
- protection from digestion by trypsin [4]: but not AMPA, NMDA, aspartate or AP5 were protective
- protection from digestion by trypsin [5]: inactive
- receptor activation (DGluR1A Y792T [6]): but not AMPA, binds strongly and produces full receptor activation

Molecule: N[C@@H](CCCP(=O)(O)O)C(=O)O [L-AP5]
- block of responses to 1 mM glutamate (DKaiR1D [2]; antagonist 10 mM, -60 mV): 35.7 ± 1.4%
- block of responses to 10 mM glutamate (DKaiR1D [2]; antagonist 10 mM, -60 mV): 11.7 ± 1.2%

Molecule: N[C@@H](Cn1oc(=O)[nH]c1=O)C(=O)O [quisqualate, quisqualic acid]
- activation, % of the response to glutamate recorded in the same cell (DGluR1A [1]; -60 mV, Apis Stg1): 41 ± 3%
- amplitude of responses relative to those to glutamate (DKaiR1D [2]): 0.78 ± 0.03
- activation of DKaiR1D (DKaiR1D [2]; -60 mV): produced activation
- binding in proteolysis protection assay (DGluR1A Y792T [3]): binds strongly
- protection from digestion by trypsin [4]: protective
- protection from digestion by trypsin [5]: prevented digestion by trypsin
- receptor activation (DGluR1A Y792T [6]): produces full receptor activation

Molecule: philanthotoxin-433
- block of wild type responses to glutamate by extracellular toxin (DKaiR1D [2]; 3 μM toxin, 3 mM glutamate, -60 mV, several minutes for full recovery): blocked
- block of Q604R mutant responses to glutamate (DKaiR1D Q604R): did not block
- inhibition of DGluR1A (DGluR1A [7]; ref Ultsch et al.): inhibition of DGluR1A by philanthotoxin

Molecule: N#Cc1cc2[nH]c(=O)c(=O)[nH]c2cc1[N+](=O)[O-] [CNQX]
- block of responses to 10 mM glutamate (DKaiR1D [2]; antagonist 10 mM, -60 mV): 34.3 ± 3.0%
- protection from digestion by trypsin [4]: protective
- protection from digestion by trypsin [5]: weak protection

Molecule: N[C@@H](CCC(=O)O)C(=O)O [glutamate]
- EC50 (DGluR1A [1]): 136 ± 8 µM
- EC50 (DKaiR1D [2]): 10700 ± 500 µM
- activation of DKaiR1D (DKaiR1D [2]; -60 mV): produced activation
- increase of rate of onset of desensitization on exchange of NaMeSO3 for NaCl (GluK2): 7 fold
- deactivation rate constant (DKaiR1D [8]; 10 mM glutamate applied for 1 ms): 2523 ± 218 s⁻¹
- 10–90% rise time (DKaiR1D [8]; 10 mM glutamate applied for 1 ms, outside-out patch): 217 ± 6 μs
- desensitization kfast (DKaiR1D [8]; [9]): 1317 ± 105 s⁻¹
- desensitization kslow (DKaiR1D [8]; [9]): 107 ± 22 s⁻¹
- onset of desensitization kfast (DKaiR1D [8]; CsCl): 1884 ± 99 s⁻¹
- onset of desensitization kslow (DKaiR1D [8]; CsCl): 192 ± 28 s⁻¹
- onset of desensitization kfast (DKaiR1D [8]; NaCl, CsCl exchange experiment): 1504 ± 90 s⁻¹
- onset of desensitization kslow (DKaiR1D [8]; NaCl, CsCl exchange experiment): 165 ± 27 s⁻¹
- onset of desensitization kfast (DKaiR1D [8]; [10]): 1970 ± 88 s⁻¹
- onset of desensitization kslow (DKaiR1D [8]; [10]): 190 ± 31 s⁻¹
- onset of desensitization kfast (DKaiR1D [8]; NaMeSO3): 1985 ± 68 s⁻¹
- onset of desensitization kslow (DKaiR1D [8]; NaMeSO3): 236 ± 39 s⁻¹
- recovery from desensitization kslow (DKaiR1D [8]; twin pulse protocol, sum of two exponentials): 9.9 s⁻¹
- protection from digestion by trypsin [4]: protective
- protection from digestion by trypsin [5]: prevented digestion by trypsin

Molecule: NC(CCCP(=O)(O)O)C(=O)O (centres unmarked) [AP5]
- activation of DKaiR1D (DKaiR1D [2]; -60 mV): nor AP5 (Figure S5) produced DKaiR1D activation
- protection from digestion by trypsin [4]: but not AMPA, NMDA, aspartate or AP5 were protective
- protection from digestion by trypsin [5]: protective

Molecule: C=C(C)[C@H]1CN[C@H](C(=O)O)[C@H]1CC(=O)O [kainate]
- EC50 (DGluR1A [1]): 125 ± 4 µM
- activation of DKaiR1D (DKaiR1D [2]; -60 mV): produced activation
- protection from digestion by trypsin [4]: protective
- EC50 (DGluR1A [7]; read-out: EC50 for activation, prior studies ref Ultsch et al.): 75 µM
- protection from digestion by trypsin [5]: prevented digestion by trypsin

Molecule: N[C@H](CCCP(=O)(O)O)C(=O)O [D-AP5, 2(R)-amino-5-phosphonopentanoic acid]
- block of responses to 1 mM glutamate (DKaiR1D [2]): 22.7 ± 0.8%
- block of responses to 10 mM glutamate (DKaiR1D [2]): 16.6 ± 1.0%

Molecule: CN[C@H](CC(=O)O)C(=O)O [NMDA]
- activation of DGluR1A (DGluR1A [1]; agonist 3 mM, -60 mV, Apis Stg1): no activation
- IC50 (DKaiR1D [2]): 900 µM
- activation of DKaiR1D (DKaiR1D [2]; -60 mV): but not AMPA, aspartate or NMDA produced activation
- block of responses to 10 mM glutamate (DKaiR1D [2]; antagonist 10 mM, -60 mV): 79.2 ± 2.2%
- protection from digestion by trypsin [4]: but not AMPA, NMDA, aspartate or AP5 were protective
- protection from digestion by trypsin [5]: protective

Molecule: N[C@@H](CC(=O)O)C(=O)O [aspartate]
- activation, % of the response to glutamate recorded in the same cell (DGluR1A [1]; -60 mV, Apis Stg1): 28 ± 8%
- activation of DKaiR1D (DKaiR1D [2]; -60 mV): but not AMPA, aspartate or NMDA produced activation
- protection from digestion by trypsin [5]: to a lesser extent aspartate were also protective
